Measured values from patent publication US11958842B2, “Substituted phenazines and methods of treating cancer and bacterial diseases” (Adjutec Pharma AS, priority 2016, dated 2024).
Converted amounts (≈) assume the structure as drawn. Read-outs that look alike come from different tables or passages of the source. Marks after values point to notes of the source that are not given here.

Tests used:
[1] = test system: rat cardiomyoblast (H9c2) cells; experiment: Cytotoxicity, WST-1 and nuclear morphology (Example 73); assay type: cell-based; conditions: H9c2, 19% O2, 24 hours of incubation, read-out: EC50 (μM) H9c2 19% O2
Procedure, shortened: (§1)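 MOLM-13 (RPMI/FBS), NRK and H9c2 (DMEM/10% FBS) cells under 2% or 20% O2 at 37° C were exposed to analogues for 24 h (≤1% DMSO). Viability was read by WST-1, and cell death by Hoechst 33342 nuclear morphology; EC50 came from four-parameter regression.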

[2] = test system: normal rat kidney epithelial (NRK) cells; experiment: as above; assay type: cell-based; conditions: Rattus norvegicus
Procedure, shortened: as §1

[3] = test system: human acute myeloid leukemia cell line MOLM-13; experiment: as above; assay type: cell-based
Procedure, shortened: as §1

[4] = Parallel artificial membrane permeability assay (PAMPA); conditions: PAMPA, 50 μM in PBS, room temperature, five hours
Experimental: The Corning Gentest™ pre-Coated parallel artificial membrane permeability assay PAMPA Plate System was from Cording Discovery Labware (Bedford, USA). The compounds were tested in room temperature at 50 μM using PBS as buffer. A total of 300 μl of the compound solution was added to each well of the donor plate, and 200 μl of PBS was added to the receiver filter plate. After incubation for five hours, 50 μl of the donor or acceptor well were injected into a reversed phase HPLC column (Kromasil 100-5 C18 150-4.6 mm, Akzo Nobel, Sweden) connected to a Merck-Hitachi LaChrome HPLC-system (VWR, WestChester, USA) with a L-7455 diode array detector. Mobile phase A was 0.05% aqueous TFA, and mobile phase B was acetonitrile. The flow rate was 1.6 ml/min and compounds eluted between 1 and 4.5 minutes was eluted during a 6.5 min gradient from 90:10% mobile phase A:B to 0:100% mobile phase A:B. The ratio of the compound concentrations in the donor and acceptor compartment was calculated after integration of the peaks at 285 nm. Peff was calculated as described in [Bennion B J, Be N A, McNerney M W, Lao V, Carlson E M, Valdez C A, et al. Predicting a Drug's Membrane Permeability: A Computational Model Validated With in Vitro Permeability Assay Data. The journal of physical chemistry B. 2017; 121(20):5228-37.]. Membrane permeability were classified by the range defined by Bennion et al., allowing for us to divide the compounds into four groups, compounds with high permeability (LogPeff>−5.33), intermediate permeability (LogPeff>−5.66 and <−5.33), low permeability (LogPeff>−6.14 and <−5.66) impermeable (LogPeff<−6.14).

[5] = all solvents; background statement; cited from earlier work
hepG2 = experiment: Cytotoxicity (Example 73, Table 2); assay type: cell-based; conditions: Homo sapiens, read-out: EC50 (μM) hepG2
IPC-81 rat AML cells = experiment: Anti-AML activity, WST-1 viability (Example 72); assay type: cell-based
Procedure, shortened: (§2)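 Rat IPC-81 cells in DMEM with 10% horse serum and Molm13 cells in RPMI with 10% FBS, seeded at 150 000 cells/ml with compound dilution series. After 22 h exposure, WST-1 added for a further 2 h; absorbance read at 450 nm (620 nm reference) as viability.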

Molm13 cells = experiment: Anti-AML activity, WST-1 viability (Example 72); assay type: cell-based; conditions: Homo sapiens, Molm 13 cells, WST-1
Procedure, shortened: as §2

[6] = test system: vancomycin-resistant E. faecium vanA A1-22; experiment: Microbroth dilution MIC; assay type: cell-based; conditions: compound alone
Experimental: (§3) Day 1: • Plate bacterial strain(s) on appropriate media: • Gram-negative bacteria with ESBLs or carbapenemases: green agar plates with 100 mg/L ampicillin • Gram-negative bacteria without β-lactamases: green agar plates • Gram-positive bacteria (Staphylococci and Enterococci): blood agar plates • Incubate o.n. at 37° C.
(§4) Prepare the Bacterial Inoculum: • Prepare a 0.5 McFarland suspension of bacteria in 0.85% NaCl. (Should be used within 15 min of preparation). • Dilute the 0.5 McFarland suspension 1:100 into MH broth.
(§5) Check the inoculum by diluting the prepared bacterial suspension 1:100 (10 μl bacterial suspension+990 μl 0.85% NaCl). Plate 10 μl of the dilution on MH agar plates (×2). Incubate o.n. at 37° C., count the colonies and calculate the final CFU/ml inoculum in the plate by multiplying the average number of colonies with 10000 and divide by 2. The final inoculum should be between 3-7×10^5 CFU/ml. • Add 50 μl of the prepared bacterial suspension to each well in the microtiter plate except negative growth control.
(§6) Preparation of Compounds/Antibiotics • Calculate the desired concentration-range and volume of the compounds/antibiotics in the assay. For antibiotics this will depend on the MIC to meropenem of the bacterial strains to be tested. Dilute the stock solution in MH broth. Make subsequent 2-fold dilutions in MH broth of the desired concentrations if a concentration range is to be tested (remember the extra dilution factor in the assay plate). Always include extra volume for pipetting. Take into consideration stock solutions that are made in buffers that have an effect on bacterial growth (e.g. DMSO).
(§7) This experimental design was used for the results in Tables 4 and 5 below. In Table 4, inhibitor concentration dependency on the MIC of meropenem was studied.

[7] = test system: methicillin-resistant S. aureus MRSA A4-37; experiment: Microbroth dilution MIC; assay type: cell-based; conditions: compound alone
Experimental: as §3, §4, §5, §6, §7

A.baumannii/OXA-23 = experiment: Microbroth dilution MIC; assay type: cell-based; conditions: Acinetobacter baumannii; S7 A.baumannii/OXA-23; substance alone
Experimental: as §3, §4, §5, §6, §7

K. pneumoniae/NDM-1 = experiment: Microbroth dilution MIC; assay type: cell-based; conditions: Klebsiella pneumoniae; S4 K. pneumoniae/NDM-1; substance alone
Experimental: as §3, §4, §5, §6, §7

P. aeruginosa/VIM-2 = experiment: Microbroth dilution MIC; assay type: cell-based; conditions: Pseudomonas aeruginosa, read-out: MIC alone
Experimental: as §3, §4, §5, §6, §7

E. coli/OXA-48 = experiment: Microbroth dilution MIC; assay type: cell-based; conditions: Escherichia coli, read-out: MIC alone
Experimental: as §3, §4, §5, §6, §7

K. pneumoniae/KPC-2 = experiment: Microbroth dilution MIC; assay type: cell-based; conditions: Klebsiella pneumoniae; S6 K. pneumoniae/KPC-2; substance alone
Experimental: as §3, §4, §5, §6, §7

P. aeruginosa (16H5) = experiment: Microbroth dilution MIC; assay type: cell-based; conditions: Pseudomonas aeruginosa; S1 P. aeruginosa (16H5), lacking metallo-β-lactamase; substance alone
Experimental: as §3, §4, §5, §6, §7

K. pneumoniae (17A2) = experiment: Microbroth dilution MIC; assay type: cell-based; conditions: Klebsiella pneumoniae; S2 K. pneumoniae (17A2), lacking metallo-β-lactamase; substance alone
Experimental: as §3, §4, §5, §6, §7

[8] = 2% O2, 24 hours of incubation, read-out: EC50 (μM) NRK 2% O2
[9] = 19% O2, 24 hours of incubation, read-out: EC50 (μM) NRK 19% O2
[10] = Homo sapiens, MOLM-13, 2% O2, 24 hours of incubation, read-out: EC50 (μM) MOLM-13 2% O2
[11] = Homo sapiens, MOLM-13, 19% O2, 24 hours of incubation, read-out: EC50 (μM) MOLM-13 19% O2
[12] = 2% O2, 24 h of incubation, read-out: Molm 13 IC50 2% O2
[13] = 20% O2, 24 h of incubation, read-out: Molm 13 IC50 20% O2

Structure (SMILES)	EC50 ([1]; Rattus norvegicus)	EC50 [2, 8]	EC50 [2, 9]	EC50 [3, 10]	EC50 [3, 11]	EC50 (hepG2; hepG2, 24 hours of incubation)	IC50 (Molm13 cells; [12])	IC50 (Molm13 cells; [13])	MIC A1-22 E. faecium vanA [6]	MIC A4-37 S. aureus MRSA [7]	further results
[O-][n+]1c2cccc(O)c2[n+]([O-])c2cccc(O)c21 [Example 1c, 1,6-dihydroxyphenazine 5,10-dioxide, reference compound]	> 50 µM	> 50 µM	> 50 µM	0.79 ± 0.1 µM	2 ± 0.07 µM	> 250 µM	0.27 µM	0.3 µM			LogPeff [4]: −5.46*; solubility [5]: practically insoluble in all solvents; IC50 (IPC-81 rat AML cells; IPC81, 24 h, read-out: IPC-81 IC50 2% O2): 0.51 µM; IC50 (IPC-81 rat AML cells; IPC81, 24 h, read-out: IPC-81 IC50 20% O2): 1.3 µM
CC(C)(C)OC(=O)COc1cccc2c1[n+]([O-])c1cccc(O)c1[n+]2[O-] [Example 5b, 1-(2-(tert-butoxy)-2-oxoethoxy)-6-hydroxyphenazine 5,10-dioxide]	42 ± 5.8 µM	53 µM	53 ± 1.5 µM	2.4 ± 0.16 µM	2.9 ± 0.34 µM		1.65 µM	1.77 µM	8 µg/mL (≈ 22.3 µM)	< 0.5 µg/mL	LogPeff [4]: −5.33
COc1cccc2c1[n+]([O-])c1cccc(OC(C)=O)c1[n+]2[O-] [Example 5e, 1-Acetoxy-6-methoxyphenazine 5,10-dioxide]							1.45 µM	1.5 µM			IC50 (IPC-81 rat AML cells; IPC81, IPC-81 cells, 2% O2, 24 h of incubation, WST-1, read-out: IPC-81 IC50 2% O2): 1.7 µM; IC50 (IPC-81 rat AML cells; IPC81, IPC-81 cells, 20% O2, 24 h of incubation, WST-1, read-out: IPC-81 IC50 20% O2): 1.8 µM
CCOC(=O)COc1cccc2c1[n+]([O-])c1ccccc1[n+]2[O-] [Example 6a, 1-(2-ethoxy-2-oxoethoxy)phenazine 5,10-dioxide]	20 ± 2.9 µM	25 ± 0.2 µM	26 ± 0.8 µM	1.7 ± 0.29 µM	1.5 ± 0.14 µM	75 µM		0.11 µM	4 µg/mL (≈ 12.7 µM)	< 0.5 µg/mL	MIC (A.baumannii/OXA-23): 5 µg/mL (≈ 15.9 µM); MIC (K. pneumoniae/NDM-1): 19.6 µg/mL (≈ 62.4 µM); MIC (P. aeruginosa/VIM-2): 39.3 µg/mL (≈ 125 µM); MIC (E. coli/OXA-48): 2.5 µg/mL (≈ 7.95 µM); MIC (K. pneumoniae/KPC-2): 9.7 µg/mL (≈ 30.9 µM)
CCOC(=O)COc1cccc2c1[n+]([O-])c1cc(Br)c(Br)cc1[n+]2[O-] [Example 6d, 7,8-dibromo-1-(2-ethoxy-2-oxoethoxy)phenazine 5,10-dioxide]	3.3 ± 0.5 µM	9.7 ± 2.4 µM	10 ± 0.7 µM	1.6 ± 0.09 µM	2.4 ± 0.03 µM	65 µM			8 µg/mL (≈ 16.9 µM)	16 µg/mL (≈ 33.9 µM)	
COc1cccc2c1[n+]([O-])c1cccc(OC(=O)N3CCCC3)c1[n+]2[O-] [Example 8l, 1-methoxy-6-((pyrrolidine-1-carbonyl)oxy)phenazine 5,10-dioxide]									63 µg/mL (≈ 177 µM)	< 4 µg/mL	EC50 [1]: 35 ± 3.3 µM; EC50 ([2]; 24 h, read-out: EC50 (μM) NRK 2% O2, NRK, 2% O2, 24 hours of incubation): 35 ± 1.5 µM; EC50 ([2]; 24 h, read-out: EC50 (μM) NRK 19% O2, NRK, 19% O2, 24 hours of incubation): 32 ± 2.5 µM; EC50 ([3]; MOLM-13, 2% O2, 24 hours of incubation, read-out: EC50 (μM) MOLM-13 2% O2): 1.8 ± 0.17 µM; EC50 ([3]; MOLM-13, 19% O2, 24 hours of incubation, read-out: EC50 (μM) MOLM-13 19% O2): 2 ± 0.11 µM; EC50 (hepG2; HepG2, 24 h): 110 µM
C[C@@H](O)[C@H]1C(=O)N2C(C(=O)O)=C(S[C@@H]3CN[C@H](C(=O)N(C)C)C3)[C@H](C)[C@H]12 [MEM, meropenem, reference compound]											MIC (P. aeruginosa (16H5)): > 64 µg/mL; MIC (A.baumannii/OXA-23): > 64 µg/mL; MIC (K. pneumoniae/NDM-1): 64 µg/mL (≈ 167 µM); MIC (P. aeruginosa/VIM-2; S3 P. aeruginosa/VIM-2, substance alone): 32 µg/mL (≈ 83.4 µM); MIC (K. pneumoniae (17A2)): 8 µg/mL (≈ 20.9 µM); MIC (E. coli/OXA-48): 1 µg/mL (≈ 2.61 µM); MIC (K. pneumoniae/KPC-2): > 64 µg/mL
